US20250352458A1, “IMPROVEMENTS IN OR RELATING TO EXTRACTS” (Givaudan SA, priority 2020, published 2025)
Values joined by “and” are separate entries in the source; they are usually repeats but may differ in a detail not shown here. Equal values may be shown once.

Columns and labels:
S. aureus (ATCC 33592) = experiment: MIC evaluation, optical density and percentage of inhibition; format: cell-based, Staphylococcus aureus
Source text: The minimum inhibitory concentration of the following active ingredients has been assessed: • Mangifera indica extract (in propanediol/water 75/25); • Vehicule (propanediol/water 75/25, expressed as Activolo3-75%); • “Pool Mangiferin” which is the pure molecule mangiferin at the same concentration in the Mangifera indica extract in propanediol/water 75/25. • “Pool Mangifera” with is the mix of the 4 molecules (mangiferin, maclurin-C-glucoside, irifluophenone-C-glucoside, gallotanin) at the same concentration in the Mangifera indica extract in propane-diol/water 75/25. S. aureus: The day before the experiment S. aureus (ATCC 33592) was plated and grown overnight at 37° C. Colonies were resuspended in 5 mL of TSB (Tryptic Soy Broth) to obtain a 0.5 McFarland D O (≈1.10^8 CFU/ml) (launch of culture at D-1). […] Concentrations are expressed in % (m/v). […] The diluted bacterial suspension was added to columns 2 to 12. RCB medium was added to column 1 as negative control. Optical density was determined, which correlates to the bacterial growth.

[1] = system: Propionibacterium acnes (C. acnes) phylotype IA1 ATCC 6919; experiment: as above; format: cell-based
Source text: The minimum inhibitory concentration of the following active ingredients has been assessed: • Mangifera indica extract (in propanediol/water 75/25); • Vehicule (propanediol/water 75/25, expressed as Activolo3-75%); • “Pool Mangiferin” which is the pure molecule mangiferin at the same concentration in the Mangifera indica extract in propanediol/water 75/25. • “Pool Mangifera” with is the mix of the 4 molecules (mangiferin, maclurin-C-glucoside, irifluophenone-C-glucoside, gallotanin) at the same concentration in the Mangifera indica extract in propane-diol/water 75/25. […] After two days, the bacterial concentration was adjusted in reinforced clostridial broth to obtain a solution at 1.106 CFU/ml (5.104 CFU/well). […] Concentrations are expressed in % (m/v). […] The diluted bacterial suspension was added to columns 2 to 12. RCB medium was added to column 1 as negative control. Optical density was determined, which correlates to the bacterial growth.

[2] = 0.39 10^−2 % (m/v), plate col. 12
[3] = 0.78 10^−2 % (m/v), plate col. 11
[4] = 1.56 10^−2 % (m/v), plate col. 10
[5] = 3.1310^−2 % (m/v), plate col. 9
[6] = 6.25 10^−2 % (m/v), plate col. 8
[7] = 12.5 10^−2 % (m/v), plate col. 7
[8] = 25.0 10^−2 % (m/v), plate col. 6

SMILES: O=c1c2cc(O)c(O)cc2oc2cc(O)c([C@@H]3O[C@H](CO)[C@@H](O)[C@H](O)[C@H]3O)c(O)c12 [pool mangiferin]
- Optical density, S. aureus (S. aureus (ATCC 33592); [2]): 0.387 and 0.392
- Percentage of inhibition, S. aureus (S. aureus (ATCC 33592); [2]): 3.0% and 1.6%
- Optical density, S. aureus (S. aureus (ATCC 33592); 0.5% (m/v), plate col. 5): 0.363 and 0.359
- Percentage of inhibition, S. aureus (S. aureus (ATCC 33592); 0.5% (m/v), plate col. 5): 9.8% and 11.0%
- Optical density, S. aureus (S. aureus (ATCC 33592); [3]): 0.384 and 0.366
- Percentage of inhibition, S. aureus (S. aureus (ATCC 33592); [3]): 3.9% and 9.0%
- Optical density, S. aureus (S. aureus (ATCC 33592); 1% (m/v), plate col. 4): 0.346 and 0.348
- Percentage of inhibition, S. aureus (S. aureus (ATCC 33592); 1% (m/v), plate col. 4): 14.7% and 14.1%
- Optical density, S. aureus (S. aureus (ATCC 33592); [4]): 0.365 and 0.369
- Percentage of inhibition, S. aureus (S. aureus (ATCC 33592); [4]): 9.3% and 8.1%
- antibacterial effect on S. aureus (in words) (S. aureus (ATCC 33592); 2%): slight antibacterial effect
- Optical density, S. aureus (S. aureus (ATCC 33592); 2% (m/v), plate col. 3): 0.320 and 0.327
- Percentage of inhibition, S. aureus (S. aureus (ATCC 33592); 2% (m/v), plate col. 3): 22.1% and 20.1%
- Optical density, S. aureus (S. aureus (ATCC 33592); [5]): 0.377 and 0.378
- Percentage of inhibition, S. aureus (S. aureus (ATCC 33592); [5]): 5.9% and 5.6%
- Optical density, S. aureus (S. aureus (ATCC 33592); [6]): 0.370 and 0.364
- Percentage of inhibition, S. aureus (S. aureus (ATCC 33592); [6]): 7.9% and 9.6%
- Optical density, S. aureus (S. aureus (ATCC 33592); [7]): 0.368 and 0.367
- Percentage of inhibition, S. aureus (S. aureus (ATCC 33592); [7]): 8.4% and 8.7%
- Optical density, S. aureus (S. aureus (ATCC 33592); [8]): 0.370 and 0.368
- Percentage of inhibition, S. aureus (S. aureus (ATCC 33592); [8]): 7.9% and 8.4%
- Optical density, C. acnes [1, 2]: 0.238 and 0.246
- Percentage of inhibition, C. acnes [1, 2]: 2.0% and 0%
- Optical density, C. acnes ([1]; 0.5% (m/v), plate col. 5): 0.242 and 0.245
- Percentage of inhibition, C. acnes ([1]; 0.5% (m/v), plate col. 5): 0%
- Optical density, C. acnes [1, 3]: 0.244 and 0.245
- Percentage of inhibition, C. acnes [1, 3]: 0%
- Optical density, C. acnes ([1]; 1% (m/v), plate col. 4): 0.241
- Percentage of inhibition, C. acnes ([1]; 1% (m/v), plate col. 4): 0%
- Optical density, C. acnes [1, 4]: 0.243 and 0.242
- Percentage of inhibition, C. acnes [1, 4]: 0%
- antibacterial effect against P. acnes (in words) ([1]; 2%): no antibacterial effect
- Optical density, C. acnes ([1]; 2% (m/v), plate col. 3): 0.236 and 0.234
- Percentage of inhibition, C. acnes ([1]; 2% (m/v), plate col. 3): 3.0% and 4.1%
- Optical density, C. acnes [1, 5]: 0.244
- Percentage of inhibition, C. acnes [1, 5]: 0%
- Optical density, C. acnes [1, 6]: 0.242 and 0.245
- Percentage of inhibition, C. acnes [1, 6]: 0%
- Optical density, C. acnes [1, 7]: 0.245 and 0.244
- Percentage of inhibition, C. acnes [1, 7]: 0%
- Optical density, C. acnes [1, 8]: 0.245 and 0.243
- Percentage of inhibition, C. acnes [1, 8]: 0%
